Assay [1] deals with SA 29213. Description: MILab-ELISA assay. The note with it: penicillin G 16 μg/mL. It is filed as cell-based, S. aureus.
The test system of assay [2] is SA 29213. Description: MILab-microarray assay. It is filed as cell-based, S. aureus.
Assay [3] concerns SA 29213. The assay can be described thus: MILab-LFA assay. The assay is classed as cell-based, S. aureus.
The subject of the next assay is S. aureus 29213. Description: Flow cytometry of metabolic labelling under penicillin G. It is filed as cell-based. The note with it: penicillin G 0-128 μg/mL, 3 h, vs untreated controls. Background: A flow cytometer gives signals particle by particle.
The test system of assay [4] is drug-susceptible (SA 29213) S. aureus. The assay can be described thus: MILab-based MiChip (SERS) assay. It is filed as cell-based.
For a further assay, the system named is MRSA BAA38. The assay can be described thus: MILab-microarray assay. It is filed as cell-based, S. aureus.
Assay [5] deals with drug-resistant (BAA40) S. aureus. The assay can be described thus: MILab-based MiChip (SERS) assay. The assay is classed as cell-based.
The subject of assay [6] is methicillin-resistant S. aureus (MRSA BAA39). The assay can be described thus: Metabolic labelling (D-Ala-N3 / DBCO-AF488) fluorescence under penicillin G treatment. The assay is classed as cell-based.
Assay [7] has as its system BAA39. Description: MILab-ELISA assay. The assay is classed as cell-based, S. aureus. The note with it: penicillin G 16 μg/mL. A general note: ELISA stands for enzyme-linked immunosorbent assay.
In assay [8] the test system is BAA39. The assay can be described thus: MILab-LFA assay. It is filed as cell-based, S. aureus.
Another assay has as its system MRSA BAA39. Description: Flow cytometry of metabolic labelling under penicillin G. It is filed as cell-based, S. aureus. The note with it: penicillin G up to 128 μg/mL, 3 h.
The test system of assay [9] is methicillin-susceptible S. aureus (SA 29213). Description: Metabolic labelling (D-Ala-N3 / DBCO-AF488) fluorescence under penicillin G treatment. The assay is classed as cell-based.
[10] abbreviates: penicillin G 16 μg/mL, 15 min to 4 hours.
[11] abbreviates: penicillin G 16 μg/mL, 1×10^4 CFU/mL.

For `CC1(C)S[C@@H]2[C@H](NC(=O)Cc3ccccc3)C(=O)N2[C@H]1C(=O)[O-].[Na+]` [penicillin G, Penicillin G sodium], the “metabolism of bacteria (MILab-ELISA OD 650 nm)” value is “completely inhibit the metabolism” in the assay with SA 29213 [1] and “high metabolic activity” in the assay on BAA39 [7]. Also, the “microarray fluorescence signal at increasing drug concentration” value with SA 29213 [2] (Penicillin G 0 to 32 μg/mL, 2 hours, vs untreated controls) is recorded as “considerably reduced signal”; in the assay with MRSA BAA38 (Penicillin G 0 to 32 μg/mL, 2 hours), “maintained significant signal”. For the same molecule, the entries for the “microarray fluorescence signal over drug treatment time” value with SA 29213 [2] (setting [10]) and in the assay on MRSA BAA38 (setting [10]) were “negligible signal even at 4 hours” and “increased with increasing penicillin G treatment time”, respectively. The “MILab-LFA signal over drug treatment (incubation) time” value in the assay with SA 29213 [3] (penicillin G, up to 4 hours) was “no signal even after 4 hours”; with BAA39 [8] (penicillin G, up to 4 hours), “showed signal after 30 min”. The “concentration that completely inhibits the bacteria (MILab-LFA test line)” value was determined as 4 µg/mL in the assay with SA 29213 [3] (susceptible bacteria SA 29213) and 64 µg/mL with BAA39 [8] (resistant bacteria BAA39). The “labelling degree of individual bacteria (flow cytometry)” value in the assay with S. aureus 29213 was “considerably reduced labelling”; with MRSA BAA39, “maintained significant labelling”. The “concentration at which weak Raman signals are generated” value was 8 µg/mL in assay [4] (dose-dependence test, susceptible S. aureus) and 128 µg/mL in [5] (dose-dependence test, resistant S. aureus). Also, the “Raman (SERS) signal over incubation time” value is “negligible signals all the time” in assay [4] (setting [11]) and “distinct Raman signal as short as 30 min” in assay [5] (setting [11]). Further, the “fluorescence intensity of metabolic labelling over incubation time” value in assay [6] (penicillin G 16 μg/mL, 0.5 to 5 h, resistant MRSA BAA39) is given as “increased quickly with increasing incubation time”; in [9] (penicillin G 16 μg/mL, 0.5 to 5 h, susceptible SA 29213), “kept constraint”. For the same molecule, the “metabolic labelling of single bacteria (confocal imaging)” value in assay [6] (penicillin G 16 μg/mL, resistant strains) was “selective labelling”; in assay [9] (penicillin G 16 μg/mL, susceptible strains), “negligible labelling”. Also, the “fluorescence intensity of metabolic labelling at varying antibiotic concentration” value is recorded as “much stronger fluorescence intensity” in [6] (penicillin G 2-128 μg/mL, resistant bacteria) and “completely inhibit the metabolic labelling” in [9] (penicillin G 2-128 μg/mL, susceptible bacteria).

Source of the values: patent publication US20250059581A1, “METHOD OF BACTERIAL IDENTIFICATION AND TESTING OF BACTERIUM RESISTANT TO ONE OR MORE ANTIBIOTICS” (Nanyang Technological University, priority 2021, published 2025).
